Source: ChEMBL document CHEMBL5365412, “Discovery of benzodiazepine derivatives as a new class of covalent inhibitors of SARS-CoV-2 main protease” (Bioorg Med Chem Lett, 2023)

What was measured:
[1] = target: Replicase polyprotein 1ab (Severe acute respiratory syndrome coronavirus 2) (UniProt P0DTD1); assay: Binding affinity to SARS-CoV-2 main protease assessed as change in melting temperature by DSF assay
[2] = target: Replicase polyprotein 1ab (Severe acute respiratory syndrome coronavirus 2, UniProt P0DTD1); assay: Inhibition of SARS-CoV-2 main protease by FRET assay

| Structure (SMILES) | ΔTm [1] [°C] | IC50 [2] [µM] |
| --- | --- | --- |
| O=C1CCCC2=C1C(c1ccc(OC(F)(F)F)cc1)N(C(=O)CCl)c1ccc([N+](=O)[O-])cc1N2 (stereo unspecified) | 3.65 | 2.03 |
| Cc1ccc(C2C3=C(CC(C)(C)CC3=O)Nc3cc([N+](=O)[O-])ccc3N2C(=O)CCl)cc1 (stereo unspecified) | 3.27 | 3.94 |
| CC1(C)CC(=O)C2=C(C1)Nc1cc([N+](=O)[O-])ccc1N(C(=O)CCl)C2c1ccc(C(F)(F)F)cc1 (stereo unspecified) | -0.54 | 3.73 |
| CC1(C)CC(=O)C2=C(C1)Nc1cc([N+](=O)[O-])ccc1N(C(=O)CCl)C2C1CCCCC1 (stereo unspecified) | 4.64 | 5.26 |
| CC1(C)CC(=O)C2=C(C1)Nc1cc([N+](=O)[O-])ccc1N(C(=O)CCl)C2C1CC1 (stereo unspecified) | 2.01 | 13.3 |
| CC1(C)CC(=O)C2=C(C1)Nc1cc([N+](=O)[O-])ccc1N(C(=O)CCl)C2C1CCCC1 (stereo unspecified) | 3.53 | 9.12 |
| COc1ccc(C2C3=C(CC(C)CC3=O)Nc3cc([N+](=O)[O-])ccc3N2C(=O)CCl)cc1 (stereo unspecified) | 3.13 | 4.45 |
| CC1(C)CC(=O)C2=C(C1)Nc1cc([N+](=O)[O-])ccc1N(C(=O)CCl)C2 | 1.85 | 24.4 |
| O=C1CCCC2=C1C(C1CCCC1)N(C(=O)CCl)c1ccc([N+](=O)[O-])cc1N2 (stereo unspecified) | 6.27 | 1.92 |
| CC1CC(=O)C2=C(C1)Nc1cc([N+](=O)[O-])ccc1N(C(=O)CCl)C2 (stereo unspecified) | 2.79 | 11.5 |
| O=C1CCCC2=C1C(C1CCCCC1)N(C(=O)CCl)c1ccc([N+](=O)[O-])cc1N2 (stereo unspecified) | 7.14 | 1.59 |
| CC1CC(=O)C2=C(C1)Nc1cc([N+](=O)[O-])ccc1N(C(=O)CCl)C2C1CCC1 (stereo unspecified) | 2.74 | 7.32 |
| O=C1CCCC2=C1C(c1ccc(C(F)(F)F)cc1)N(C(=O)CCl)c1ccc([N+](=O)[O-])cc1N2 (stereo unspecified) | 6.6 | 1.02 |
| CC1CC(=O)C2=C(C1)Nc1cc([N+](=O)[O-])ccc1N(C(=O)CCl)C2c1ccccc1 (stereo unspecified) | 3.16 | 3.36 |
| CC1CC(=O)C2=C(C1)Nc1cc([N+](=O)[O-])ccc1N(C(=O)CCl)C2C1CCCCC1 (stereo unspecified) | 2.57 | 3.63 |
| O=C1CCCC2=C1C(C1CCC1)N(C(=O)CCl)c1ccc([N+](=O)[O-])cc1N2 (stereo unspecified) | 5.83 | 2.48 |
| CC1CC(=O)C2=C(C1)Nc1cc([N+](=O)[O-])ccc1N(C(=O)CCl)C2c1ccc(OC(F)(F)F)cc1 (stereo unspecified) | 0.13 | 4.15 |
| Cc1ccc(C2C3=C(CCCC3=O)Nc3cc([N+](=O)[O-])ccc3N2C(=O)CCl)cc1 (stereo unspecified) | 4.44 | 2.35 |
| CC1C2=C(CC(C)(C)CC2=O)Nc2cc([N+](=O)[O-])ccc2N1C(=O)CCl (stereo unspecified) | 1.32 | 23.3 |

| Structure (SMILES) | ΔTm [1] [°C] | IC50 [2] [µM] |
| --- | --- | --- |
| COc1ccc(C2C3=C(CCCC3=O)Nc3cc([N+](=O)[O-])ccc3N2C(=O)CCl)cc1 (stereo unspecified) | 4.55 | 2.05 |
| CC1CC(=O)C2=C(C1)Nc1cc([N+](=O)[O-])ccc1N(C(=O)CCl)C2C1CCCC1 (stereo unspecified) | 3.01 | 5.15 |
| COc1ccc(C2C3=C(CC(C)(C)CC3=O)Nc3cc([N+](=O)[O-])ccc3N2C(=O)CCl)cc1 (stereo unspecified) | -2.76 | 4.52 |
| COC(=O)c1ccc2c(c1)NC1=C(C(=O)CCC1)C(c1ccc(C(F)(F)F)cc1)N2C(=O)CCl (stereo unspecified) | 8.45 | 0.18 |
| Cc1ccc(C2C3=C(CC(C)CC3=O)Nc3cc([N+](=O)[O-])ccc3N2C(=O)CCl)cc1 (stereo unspecified) | 1.62 | 3.35 |
| CC1CC(=O)C2=C(C1)Nc1cc([N+](=O)[O-])ccc1N(C(=O)CCl)C2c1ccc(C(F)(F)F)cc1 (stereo unspecified) | 4.02 | 3.31 |
| CC1(C)CC(=O)C2=C(C1)Nc1cc([N+](=O)[O-])ccc1N(C(=O)CCl)C2c1ccc(OC(F)(F)F)cc1 (stereo unspecified) | -1.64 | 5.68 |
| O=C1CCCC2=C1C(c1ccccc1)N(C(=O)CCl)c1ccc([N+](=O)[O-])cc1N2 (stereo unspecified) | 5.71 | 1.67 |
| N#Cc1ccc2c(c1)NC1=C(C(=O)CCC1)C(c1ccc(C(F)(F)F)cc1)N2C(=O)CCl (stereo unspecified) | 6.02 | 1.84 |
| CC1CC(=O)C2=C(C1)Nc1cc([N+](=O)[O-])ccc1N(C(=O)CCl)C2c1ccc(F)cc1F (stereo unspecified) | 3.25 | 6.21 |
| CC1CC(=O)C2=C(C1)Nc1cc([N+](=O)[O-])ccc1N(C(=O)CCl)C2C (stereo unspecified) | 3.21 | 11 |
| CC1CC(=O)C2=C(C1)Nc1cc([N+](=O)[O-])ccc1N(C(=O)CCl)C2C1CC1 (stereo unspecified) | 4.66 | 9.06 |
| CC1(C)CC(=O)C2=C(C1)Nc1cc([N+](=O)[O-])ccc1N(C(=O)CCl)C2c1ccccc1 (stereo unspecified) | 4.74 | 4.52 |
| CC1(C)CC(=O)C2=C(C1)Nc1cc([N+](=O)[O-])ccc1N(C(=O)CCl)C2C1CCC1 (stereo unspecified) | 2.72 | 9.57 |
| O=C1CCCC2=C1C(c1ccc(F)cc1F)N(C(=O)CCl)c1ccc([N+](=O)[O-])cc1N2 (stereo unspecified) | 2.95 | 4.09 |
| CC1C2=C(CCCC2=O)Nc2cc([N+](=O)[O-])ccc2N1C(=O)CCl (stereo unspecified) | 4.5 | 3.69 |
| O=C1CCCC2=C1CN(C(=O)CCl)c1ccc([N+](=O)[O-])cc1N2 | 4.1 | 5.11 |
| CC1(C)CC(=O)C2=C(C1)Nc1cc([N+](=O)[O-])ccc1N(C(=O)CCl)C2c1ccc(F)cc1F (stereo unspecified) | 2.94 | 9.55 |
| O=C1CCCC2=C1C(C1CC1)N(C(=O)CCl)c1ccc([N+](=O)[O-])cc1N2 (stereo unspecified) | 4.77 | 2.55 |
